# Data from the supplement of paper PMC10307832.
# Assays:
# Assay in all cases: relative viability (nuclei count vs DMSO), 5 days (fraction); higher = more cells survive
# KIN001-266 + Linsitinib = compound: CCN1CCC(CC1)N2C=C(N=N2)CNC3=CC4=C(C(=CN=C4C(=C3)Cl)C#N)NC5=CC(=C(C=C5)F)Cl [KIN001-266] + C[C@]1(O)C[C@@H](c2nc(-c3ccc4ccc(-c5ccccc5)nc4c3)c3c(N)nccn32)C1 [Linsitinib] (partner 1 µM)
# Method in brief: (§1)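 Lung cancer cell lines, seeded in 1536-well plates, were treated the following day by pin tool with a single drug or with five library-drug doses (not always all listed) in √10 steps on top of a fixed anchor-drug dose. Cells were fixed and nuclei stained in one step after 5 days, and nuclei were counted. Relative viability is the nuclei count for treated wells divided by that for vehicle wells, reported as medians of duplicate plates.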
# KIN001-266 + Navitoclax = compound: CCN1CCC(CC1)N2C=C(N=N2)CNC3=CC4=C(C(=CN=C4C(=C3)Cl)C#N)NC5=CC(=C(C=C5)F)Cl [KIN001-266] + CC1(C)CCC(c2ccc(Cl)cc2)=C(CN2CCN(c3ccc(C(=O)NS(=O)(=O)c4ccc(N[C@H](CCN5CCOCC5)CSc5ccccc5)c(S(=O)(=O)C(F)(F)F)c4)cc3)CC2)C1 [Navitoclax] (partner 0.5 µM)
# Method in brief: as §1
# KIN001-266 + Luminespib = compound: CCN1CCC(CC1)N2C=C(N=N2)CNC3=CC4=C(C(=CN=C4C(=C3)Cl)C#N)NC5=CC(=C(C=C5)F)Cl [KIN001-266] + CCNC(=O)c1noc(-c2cc(C(C)C)c(O)cc2O)c1-c1ccc(CN2CCOCC2)cc1 [Luminespib] (partner 0.01 µM)
# Method in brief: as §1
# KIN001-266 + Foretinib = compound: CCN1CCC(CC1)N2C=C(N=N2)CNC3=CC4=C(C(=CN=C4C(=C3)Cl)C#N)NC5=CC(=C(C=C5)F)Cl [KIN001-266] + COc1cc2c(Oc3ccc(NC(=O)C4(C(=O)Nc5ccc(F)cc5)CC4)cc3F)ccnc2cc1OCCCN1CCOCC1 [Foretinib] (partner 0.25 µM)
# Method in brief: as §1
Cell Line,relative viability (KIN001-266 + Linsitinib; first compound 0.08 µM),relative viability (KIN001-266 + Linsitinib; first compound 0.253 µM),relative viability (KIN001-266 + Linsitinib; first compound 0.8 µM),relative viability (KIN001-266 + Linsitinib; first compound 2.53 µM),relative viability (KIN001-266 + Linsitinib; first compound 8 µM),relative viability (KIN001-266 + Navitoclax; first compound 0.08 µM),relative viability (KIN001-266 + Navitoclax; first compound 0.253 µM),relative viability (KIN001-266 + Navitoclax; first compound 0.8 µM),relative viability (KIN001-266 + Navitoclax; first compound 2.53 µM),relative viability (KIN001-266 + Navitoclax; first compound 8 µM),relative viability (KIN001-266 + Luminespib; first compound 0.08 µM),relative viability (KIN001-266 + Luminespib; first compound 0.253 µM),relative viability (KIN001-266 + Luminespib; first compound 0.8 µM),relative viability (KIN001-266 + Luminespib; first compound 2.53 µM),relative viability (KIN001-266 + Luminespib; first compound 8 µM),relative viability (KIN001-266 + Foretinib; first compound 0.08 µM),relative viability (KIN001-266 + Foretinib; first compound 0.253 µM),relative viability (KIN001-266 + Foretinib; first compound 0.8 µM),relative viability (KIN001-266 + Foretinib; first compound 2.53 µM),relative viability (KIN001-266 + Foretinib; first compound 8 µM)
HARA,0.863,0.851,0.925,0.935,0.735,1.17,1.03,1.14,1.11,1.03,0.704,0.718,0.395,0.878,0.307,0.814,0.884,0.878,0.858,0.821
HCC-15,0.812,0.886,0.761,0.734,0.7,0.722,0.676,0.624,0.553,0.411,0.232,0.475,0.241,0.248,0.136,0.913,0.964,0.886,0.817,0.707
HCC-44,0.669,0.678,0.687,0.742,0.622,1.03,1.08,0.946,1.06,1.03,1.02,1.04,1.1,1.01,1.19,–,–,–,–,–
HCC-78,0.465,0.516,0.451,0.459,0.642,0.812,0.807,0.758,0.88,0.775,–,–,–,–,–,0.529,0.588,–,0.575,0.527
HCC-366,0.547,0.607,0.821,0.476,0.545,0.923,1.05,1.07,1.11,1.12,–,–,–,–,–,0.961,0.955,0.916,0.905,0.851
IA-LM,0.51,0.435,0.58,0.584,0.641,0.948,0.619,0.731,0.935,0.561,–,–,–,–,–,1.03,1.17,1.41,1.19,0.891
LCLC-103H,1.02,1.04,1.16,1.09,0.96,–,–,–,–,–,0.96,1.01,0.95,0.923,0.695,0.837,0.716,0.987,0.772,0.726
NCI-H358,0.695,0.628,0.821,0.667,0.33,–,–,–,–,–,0.496,0.251,0.237,0.306,0.123,0.728,0.734,0.629,0.631,0.397
NCI-H522,–,–,–,–,–,–,–,–,–,–,1.09,1.19,0.99,0.912,1.05,–,–,–,–,–
NCI-H650,0.914,1.05,0.976,0.979,1.03,–,–,–,–,–,0.847,0.902,0.838,0.822,0.81,1.07,1.02,0.98,1.04,0.988
NCI-H661,0.551,0.514,0.537,0.515,0.425,–,–,–,–,–,0.887,0.946,0.968,0.915,0.559,1.02,1,1.03,0.954,0.946
NCI-H1299,0.955,0.984,1,0.946,0.899,1.04,1.04,0.995,1.01,0.897,–,–,–,–,–,1.06,1.1,1.05,0.994,0.964
NCI-H1563,1.16,1.22,1.25,1.16,1.1,–,–,–,–,–,0.496,0.498,0.534,0.602,0.524,0.925,0.862,0.941,0.985,0.904
NCI-H1650,–,–,–,–,–,1.09,1.1,1.23,1.15,0.985,0.193,0.207,0.196,0.177,0.203,1.25,0.951,0.947,0.773,0.476
NCI-H1703,0.786,0.493,1.11,0.488,0.747,0.987,1.08,1.13,0.875,0.632,–,–,–,–,–,0.367,–,0.37,0.359,0.366
NCI-H1792,0.544,0.471,0.515,0.603,0.533,0.601,0.627,0.581,0.652,0.661,0.414,0.381,0.403,0.628,0.486,–,–,–,–,–
NCI-H2170,–,–,–,–,–,0.598,0.549,0.623,0.647,0.605,0.704,0.801,0.675,0.739,0.568,0.984,1.03,1.01,0.987,0.976
NCI-H2342,–,–,–,–,–,–,–,–,–,–,0.745,0.716,0.689,0.721,0.865,1.09,1.04,1.17,1.15,1.07
SW 900,–,–,–,–,–,–,–,–,–,–,0.143,0.177,0.154,0.173,0.167,1.08,0.987,0.908,0.835,0.697
